Data from patent US11629138B2, “Microbiocidal picolinamide derivatives” (Syngenta Participations AG, priority 2017, dated 2023).

Tests used:
[1] = tested on: Puccinia recondita f. so. tritici; assay: Puccinia recondita f. sp. tritici / wheat / leaf disc preventative (brown rust); assay type: in vivo; details: foliar, 200 ppm in the formulation, wheat leaf segments cv. Kanzler, 7-9 days after application, vs untreated control, read-out: disease control
Method: Puccinia recondita f. so. tritici/Wheat/Leaf Disc Preventative (Brown Rust)
Wheat leaf segments cv. Kanzler are placed on agar in multiwell plates (24-well format) and sprayed with the formulated test compound diluted in water. The leaf disks are inoculated with a spore suspension of the fungus 1 day after application. The inoculated leaf segments are incubated at 19° C. and 75% rh under a light regime of 12 h light/12 h darkness in a climate cabinet and the activity of a compound is assessed as percent disease control compared to untreated when an appropriate level of disease damage appears in untreated check leaf segments (7-9 days after application).

[2] = tested on: Mycosphaerella arachidis (Cercospora arachidicola); assay: Mycosphaerella arachidis (Cercospora arachidicola) / liquid culture (early leaf spot); assay type: cell-based; details: 200 ppm in the formulation, PDB broth, 24° C., photometric, 4-5 days after application, vs untreated control, read-out: disease control (inhibition of growth)
Method: Mycosphaerella arachidis (Cercospora arachidicola)/Liquid Culture (Early Leaf Soot) Conidia of the fungus from cryogenic storage are directly mixed into nutrient broth (PDB potato dextrose broth). After placing a (DMSO) solution of test compound into a microtiter plate (96-well format), the nutrient broth containing the fungal spores is added. The test plates are incubated at 24° C. and the inhibition of growth is determined photometrically 4-5 days after application.

[3] = tested on: Mycosphaerella graminicola (Septoria tritici); assay: Mycosphaerella graminicola (Septoria tritici) / liquid culture (Septoria blotch); assay type: cell-based; details: Zymoseptoria tritici; 200 ppm in the formulation; PDB broth, 24° C., photometric, 4 to 5 days after application; vs untreated control; read-out: disease control (inhibition of growth)
Method: Mycosphaerella graminicola (Septoria tritici)/Liquid Culture (Septoria Blotch) Conidia of the fungus from cryogenic storage are directly mixed into nutrient broth (PDB potato dextrose broth). After placing a (DMSO) solution of test compound into a microtiter plate (96-well format), the nutrient broth containing the fungal spores is added. The test plates are incubated at 24° C. and the inhibition of growth is determined photometrically 4 to 5 days after application.

[4] = tested on: Monographella nivalis (Microdochium nivale); assay: Monographella nivalis (Microdochium nivale) / liquid culture (foot rot cereals); assay type: cell-based; details: 200 ppm in the formulation, PDB broth, 24° C., photometric, 4-5 days after application, vs untreated control, read-out: disease control (inhibition of growth)
Method: Monographella nivalis (Microdochium nivale)/Liquid Culture (Foot Rot Cereals) Conidia of the fungus from cryogenic storage are directly mixed into nutrient broth (PDB potato dextrose broth). After placing a (DMSO) solution of test compound into a microtiter plate (96-well format), the nutrient broth containing the fungal spores is added. The test plates are incubated at 24° C. and the inhibition of growth is determined photometrically 4-5 days after application.

[5] = tested on: Glomerella lagenarium (Colletotrichum lagenarium); assay: Glomerella lagenarium (Colletotrichum lagenarium) / liquid culture (anthracnose); assay type: cell-based; details: Colletotrichum orbiculare; 200 ppm in the formulation; PDB broth, 24° C., photometric, 3 to 4 days after application; vs untreated control; read-out: disease control (inhibition of growth)
Method: Glomerella lagenarium (Colletotrichum lagenarium)/Liquid Culture (Anthracnose) Conidia of the fungus from cryogenic storage are directly mixed into nutrient broth (PDB potato dextrose broth). After placing a (DMSO) solution of test compound into a microtiter plate (96-well format), the nutrient broth containing the fungal spores is added. The test plates are incubated at 24° C. and the inhibition of growth is measured photometrically 3 to 4 days after application.

[6] = tested on: Botryotinia fuckeliana (Botrytis cinerea); assay: Botryotinia fuckeliana (Botrytis cinerea) liquid culture (gray mould); assay type: cell-based; details: 200 ppm in the formulation, Vogels broth, 24° C., photometric, 3-4 days after application, vs untreated control, read-out: disease control (inhibition of growth)
Method: Botryotinia fuckeliana (Botrytis cinerea) Liquid Culture (Gray Mould) Conidia of the fungus from cryogenic storage are directly mixed into nutrient broth (Vogels broth). After placing a (DMSO) solution of test compound into a microtiter plate (96-well format), the nutrient broth containing the fungal spores is added. The test plates are incubated at 24° C. and the inhibition of growth is determined photometrically 3-4 days after application.

[7] = tested on: Phaeosphaeria nodorum (Setoria nodorum); assay: Phaeosphaeria nodorum (Septoria nodorum) / wheat / leaf disc preventative (glume blotch); assay type: in vivo; details: Parastagonospora nodorum, foliar, 200 ppm in the formulation, wheat leaf segments cv. Kanzler, 5-7 days after application, vs untreated control, read-out: disease control
Method: Phaeosphaeria nodorum (Setoria nodorum)/Wheat/Leaf Disc Preventative (Glume Blotch) Wheat leaf segments cv. Kanzler are placed on agar in a multiwell plate (24-well format) and sprayed with the formulated test compound diluted in water. The leaf disks are inoculated with a spore suspension of the fungus 2 days after application. The inoculated test leaf disks are incubated at 20° C. and 75% rh under a light regime of 12 h light/12 h darkness in a climate cabinet and the activity of a compound is assessed as percent disease control compared to untreated when an appropriate level of disease damage appears in untreated check leaf disks (5-7 days after application).

COc1ccnc(C(=O)N[C@@H](C)C(=O)OC(C)C(C)n2ncc3ccccc32)c1O (stereo partly drawn) [I.ae.001, (2-indazol-1-yl-1-methyl-propyl) (2S)-2-[(3-hydroxy-4-methoxy-pyridine-2-carbonyl)amino]propanoate]
≥ 80%: pest or weed control at 200 ppm [1] | inhibition at 200 ppm [2] | inhibition at 200 ppm [3]

COc1ccnc(C(=O)N[C@@H](C)C(=O)OC(C)C(C)n2cc(C#N)c(-c3cccc(Cl)c3Cl)c2)c1O (stereo partly drawn) [I.ag.001, [2-[3-cyano-4-(2,3-dichlorophenyl)pyrrol-1-yl]-1-methyl-propyl] (2S)-2-[(3-hydroxy-4-methoxy-pyridine-2-carbonyl)amino] propanoate]
≥ 80%: inhibition at 200 ppm [4] | inhibition at 200 ppm [5] | inhibition at 200 ppm [6] | inhibition at 200 ppm [3]

COc1ccnc(C(=O)N[C@@H](C)C(=O)OC(C)C(C)n2cc(C#N)c(-c3ccccc3Cl)c2)c1O (stereo partly drawn) [I.ah.001, [2-[3-(2-chlorophenyl)-4-cyano-pyrrol-1-yl]-1-methyl-propyl] (2S)-2-[(3-hydroxy-4-methoxy-pyridine-2-carbonyl)amino]propanoate]
≥ 80%: inhibition at 200 ppm [4] | inhibition at 200 ppm [5] | inhibition at 200 ppm [6] | inhibition at 200 ppm [2] | inhibition at 200 ppm [3]

COc1ccnc(C(=O)N[C@@H](C)C(=O)OC(C)C(C)c2sc3ccc(Cl)cc3c2C)c1O (stereo partly drawn) [I.at.001, [2-(5-chloro-3-methyl-benzothiophen-2-yl)-1-methyl-propyl] (2S)-2-[(3-hydroxy-4-methoxy-pyridine-2-carbonyl)amino]propanoate]
≥ 80%: inhibition at 200 ppm [4] | pest or weed control at 200 ppm [1] | inhibition at 200 ppm [5] | inhibition at 200 ppm [2] | inhibition at 200 ppm [3] | pest or weed control at 200 ppm [7]

COc1ccnc(C(=O)N[C@@H](C)C(=O)OC(C)C(C)n2ccc3cc(Cl)c(Cl)cc32)c1O (stereo partly drawn) [I.au.001, [2-(5,6-dichloroindol-1-yl)-1-methyl-propyl] (2S)-2-[(3-hydroxy-4-methoxy-pyridine-2-carbonyl)amino] propanoate]
≥ 80%: inhibition at 200 ppm [4] | pest or weed control at 200 ppm [1] | inhibition at 200 ppm [5] | inhibition at 200 ppm [6] | inhibition at 200 ppm [2] | inhibition at 200 ppm [3]

COc1ccnc(C(=O)N[C@@H](C)C(=O)OC(C)C(C)n2ccc3cc(F)c(Cl)cc32)c1O (stereo partly drawn) [I.av.001, [2-(6-chloro-5-fluoro-indol-1-yl)-1-methyl-propyl] (2S)-2-[(3-hydroxy-4-methoxy-pyridine-2-carbonyl)amino]propanoate]
≥ 80%: pest or weed control at 200 ppm [1] | inhibition at 200 ppm [5] | inhibition at 200 ppm [2] | inhibition at 200 ppm [3]

COc1ccnc(C(=O)N[C@@H](C)C(=O)OC(C)C(C)n2ccc3cc(F)c(Br)cc32)c1O (stereo partly drawn) [I.aw.001, [2-(6-bromo-5-fluoro-indol-1-yl)-1-methyl-propyl] (2S)-2-[(3-hydroxy-4-methoxy-pyridine-2-carbonyl)amino]propanoate]
≥ 80%: pest or weed control at 200 ppm [1] | inhibition at 200 ppm [5] | inhibition at 200 ppm [2] | inhibition at 200 ppm [3]

COc1ccnc(C(=O)N[C@@H](C)C(=O)OC(C)C(C)n2ccc3cc(F)cc(F)c32)c1O (stereo partly drawn) [I.ay.001, [2-(5,7-difluoroindol-1-yl)-1-methyl-propyl] (2S)-2-[(3-hydroxy-4-methoxy-pyridine-2-carbonyl)amino] propanoate]
≥ 80%: inhibition at 200 ppm [4] | pest or weed control at 200 ppm [1] | inhibition at 200 ppm [5] | inhibition at 200 ppm [2] | inhibition at 200 ppm [3] | pest or weed control at 200 ppm [7]

COc1ccnc(C(=O)N[C@@H](C)C(=O)OC(C)C(C)n2ccc3c(Cl)ccc(Cl)c32)c1OC(C)=O (stereo partly drawn) [I.bb.041, [2-(4,7-dichloroindol-1-yl)-1-methyl-propyl] (2S)-2-[(3-acetoxy-4-methoxy-pyridine-2-carbonyl)amino] propanoate]
≥ 80%: inhibition at 200 ppm [4] | pest or weed control at 200 ppm [1] | inhibition at 200 ppm [5] | inhibition at 200 ppm [2] | inhibition at 200 ppm [3] | pest or weed control at 200 ppm [7]

COc1ccnc(C(=O)N[C@@H](C)C(=O)OC(C)C(C)c2ccc3ccccc3n2)c1O (stereo partly drawn) [I.s.001, [1-methyl-2-(2-quinolyl)propyl] (2S)-2-[(3-hydroxy-4-methoxy-pyridine-2-carbonyl)amino]propanoate]
≥ 80%: inhibition at 200 ppm [4] | pest or weed control at 200 ppm [1] | inhibition at 200 ppm [5] | inhibition at 200 ppm [6] | inhibition at 200 ppm [2] | inhibition at 200 ppm [3]

COc1ccnc(C(=O)N[C@@H](C)C(=O)OC(C)C(C)n2ccc3ccc(F)cc32)c1O (stereo partly drawn) [I.v.001, [2-(6-fluoroindol-1-yl)-1-methyl-propyl] (2S)-2-[(3-hydroxy-4-methoxy-pyridine-2-carbonyl)amino]propanoate]
≥ 80%: inhibition at 200 ppm [4] | pest or weed control at 200 ppm [1] | inhibition at 200 ppm [5] | inhibition at 200 ppm [6] | inhibition at 200 ppm [2] | inhibition at 200 ppm [3]

COc1ccnc(C(=O)N[C@@H](C)C(=O)OC(C)C(C)n2ccc3cc(F)ccc32)c1O (stereo partly drawn) [I.w.001, [2-(5-fluoroindol-1-yl)-1-methyl-propyl] (2S)-2-[(3-hydroxy-4-methoxy-pyridine-2-carbonyl)amino]propanoate]
≥ 80%: inhibition at 200 ppm [4] | pest or weed control at 200 ppm [1] | inhibition at 200 ppm [5] | inhibition at 200 ppm [6] | inhibition at 200 ppm [2] | inhibition at 200 ppm [3]

COc1ccnc(C(=O)N[C@@H](C)C(=O)OC(C)C(C)n2ccc3ccc(Cl)cc32)c1O (stereo partly drawn) [I.x.001, [2-(6-chloroindol-1-yl)-1-methyl-propyl] (2S)-2-[(3-hydroxy-4-methoxy-pyridine-2-carbonyl)amino]propanoate]
≥ 80%: pest or weed control at 200 ppm [1] | inhibition at 200 ppm [5] | inhibition at 200 ppm [6] | inhibition at 200 ppm [2] | inhibition at 200 ppm [3]
